Literature values in US20110091544A1 (priority 2009, published 2011).
Read-outs that look alike come from different tables or passages of the source.

Tests used:
[1] = system: pediatric patients undergoing outpatient surgery; conditions: in vivo
[2] = system: children scheduled for day surgery
[3] = system: acute seizures; conditions: nasal
[4] = 0.2 mg/kg; 30 min after premedication; children
[5] = system: patients; conditions: 7.5 mg; at 30 and 60 min after administration
[6] = system: healthy young subjects and healthy elderly subjects; conditions: 125 mcg and 250 mcg
[7] = not given; remark: listed apart in the source
[8] = system: 61-70 year old patients scheduled for ophthalmic surgery; conditions: 200 mcg sublingual
[9] = not given; remark: listed apart in the source
[10] = 250 mcg or 375 mcg sublingual
[11] = system: dental outpatients; conditions: in vivo
[12] = system: healthy children; conditions: oral 0.025 mg/kg, children aged 6 to 9 years

Cc1ncc2n1-c1ccc(Cl)cc1C(c1ccccc1F)=NC2 [midazolam, 8-chloro-6-(2-fluorophenyl)-1-methyl-4H-imidazo[1,5-a][1,4]benzodiazepine]
children who had not previously cried who cried on administration [1]: 71%
patients who experienced nasal irritation [1]: 20 patients
children showing satisfactory sedation at 15 min after administration ([2]; 0.25 mg/kg sublingual, P=0.02): 28%
children showing satisfactory sedation at 15 min after administration ([2]; 0.5 mg/kg sublingual, P<0.001): 52%
children showing satisfactory sedation at 15 min after administration ([2]; 0.75 mg/kg sublingual, P<0.001): 64%
treatment of acute seizures [3]: effective
midazolam level, sublingual group versus nasal group [4]: statistically significantly higher
maximum plasma concentrations (15 mg oral dose): 70 to 120 ng/mL
time to maximum plasma concentrations (15 mg oral dose): within one hour
prolongation of plasma half-life (adults greater than 60 years): up to 3 times
plasma half-life (orally administered): 1.5 to 5 h
oral bioavailability (with a broad range): approximately 36%
sedation scores, sublingual group versus oral group [5]: higher

Cc1nnc2n1-c1ccc(Cl)cc1C(c1ccccc1Cl)=NC2 [triazolam, 8-chloro-6-(o-chlorophenyl)-1-methyl-4H-s-triazolo-[4,3-alpha][1,4]benzodiazepine]
sedation and psychomotor performance, healthy elderly versus young persons at the same dose [6]: greater degree of sedation and greater impairment of psychomotor performance
elimination half-life ([7]; 500 mcg oral): 3.7 h
mean total area under the curve ([7]; 500 mcg oral): 22.6 ng·h/mL
peak plasma concentration ([7]; 500 mcg oral): 3.9 ng/mL
time of peak concentration ([7]; 500 mcg oral): 1.25 h
elimination half-life ([7]; 500 mcg sublingual): 4.1 h
mean total area under the curve ([7]; 500 mcg sublingual): 28.9 ng·h/mL
peak plasma concentration ([7]; 500 mcg sublingual): 4.7 ng/mL
time of peak concentration ([7]; 500 mcg sublingual): 1.22 h
bioavailability greater than oral ([7]; 500 mcg sublingual versus oral, average): 28%
depth of sedation compared with 10 mg oral diazepam [8]: deeper sedation
time at which sedation developed after administration [8]: 60 to 90 min
increase in Cmax ([9]; elderly versus young adults): 50%
Tmax ([9]; no change elderly versus young adults): 0.9 h
plasma half-life ([9]; orally administered): 1.5 to 5.5 h
higher peak plasma level ([9]; sublingual compared with oral administration): 20%
Cmax, range ([10]; children): 4.0 to 8.2 ng/mL
Tmax, range ([10]; children): 0.5 to 2 h
elimination half-life, range ([10]; children): 0.85 to 2.33 h
Cmax ([10]; children 64-98 months old, mean+/−SD): 4.9 ± 2.0 ng/mL
Tmax ([10]; children, mean+/−SD): 1.25 ± 0.533 h
elimination half-life ([10]; children, mean+/−SD): 1.52 ± 0.533 h
higher bioavailability [11]: 28%
anxiety and pain at 15 minutes intraoperatively ([11]; po): significantly less anxiety and pain
time to peak plasma concentration [12]: 74 ± 25 min
peak plasma concentration ([12]; mean+/−SD): 8.5 ± 3.0 ng/mL
